# According to PMC11219871, “Epigenetic-based differentiation therapy for Acute Myeloid Leukemia” (Nature Communications, 2024):
# Values joined by “and” are separate entries in the source; they are usually repeats but may differ in a detail not shown here. Identical values can stand only once. Like-named read-outs stand apart in the source and are kept apart here.
# Experiments:
# [1] = tested on: LINE-1 DNA methylation in HL-60; assay: LINE-1 pyrosequencing; format: cell-based, human
# Procedure: (§1) DNA methylation of the repetitive element LINE-1 was analyzed using a pyrosequencing technique. […] Cells were washed twice with PBS, and then genomic DNA was extracted using a DNA Kit (Nucleo Spin Tissue, Cat No 74095250, Macherey-Nagel) following the manufacturer's instructions. DNA purity and concentration were measured using a NanoDrop spectrophotometer (Thermo Scientific). A 1 μg amount of genomic DNA was treated and modified using a CpGenome DNA modification Kit (Cat No S7820, Chemicon International) following the manufacturer's instructions. […] [NT]) in a final volume of 25 μL. The resulting biotinylated PCR products were immobilized to Streptavidin Sepharose ® High-Performance beads (GE Healthcare) and processed to yield high-quality ssDNA using the PyroMark Vacuum Prep Workstation (Biotage) according to the manufacturer's instructions. The pyrosequencing reactions were performed using the PyromarkTM ID (Biotage), and sequence analysis was performed using the PyroQ-CpG analysis software (Biotage).
# [2] = tested on: LINE-1 DNA methylation in MOLM-13; assay: LINE-1 pyrosequencing; format: cell-based, human
# Procedure: as §1
# [3] = tested on: LINE-1 DNA methylation in MV4-11; assay: LINE-1 pyrosequencing; format: cell-based, human
# Procedure: as §1
# [4] = Liver microsomal stability; format: in vitro ADME; settings: read-out: Liver Microsomal Stability Estimation T1/2
# Procedure: This study was conducted at Wuxi (http://www.wuxi.com/). […] A 5-μL aliquot of stock solution of test compound (10 mM; 100% DMSO) was diluted in 495 μL of […] (final concentration of 100 μM, 99% MeOH). Then, 50 μL of this intermediate solution was diluted in 450 μL of 100 mM potassium phosphate buffer to a concentration of 10 μM (working solution, 9.9% MeOH). The β-nicotinamide adenine dinucleotide phosphate reduced form (NADPH) regenerating system also contained tetrasodium salt, NADPH•4Na (Sigma, Cat.# No.00616). Human liver microsomes were obtained from Corning (Cat.#452117), and C57 mouse liver microsomes from Xenotech (Cat.#M5000), at a final concentration of 0.5 mg protein/mL. A volume of 10 μL of working solution of test and control compounds (testosterone, diclofenac and propafenone) and 80 μL/well microsome solution were added to a 96-well plate and incubated for 10 min at 37 °C. The reaction was started by the addition of 10 μL of NADPH regenerating system and stopped by the addition of 300 μL of stop solution (acetonitrile at 4 °C, including 100 ng/mL tolbutamide and 100 ng/mL of labetalol as internal standard) at different incubation times (0, 5, 10, 20, 30, and 60 min). Then, the samples were shaken for 10 min and centrifuged at 1699 g for 20 min at 4 °C. An aliquot of supernatant (100 μL) was transferred from each well and mixed with 300 μL of ultra-pure water before submitting to LC-MS/MS analysis. Concentrations of test and control compounds were quantified by LC-MS/MS using a peak area ratio of analyte/internal standard, and the percent loss of the parent compound was calculated at each time point to determine the half-life (t1/2, min). Experiments were performed in duplicate.
# [5] = tested on: HL-60 cells in BALB/cA Rag2-/-γc-/- mice; assay: Subcutaneous implant of in vitro pretreated cells, tumor volume; format: in vivo, mouse; set-up: key to Tumor volume: mm^3; V = D×d²/2 (D longest, d shortest diameter); settings: for Tumor volume: HL-60 cells pretreated in vitro for 96 hours with 270 nM of CM-444 or 300 nM of CM-1758, injected subcutaneously, individual mice
# Procedure: (§2) The human AML HL-60 and ML-2 cell lines were first pretreated in vitro daily with 270 and 260 nM of CM-444 or 300 and 210 nM of CM-1758, respectively, for 4 days. Prior to injection in mice, the cell differentiation induction by CM-444 and CM-1758 compounds was verified by measuring CD11b by flow cytometry, as described earlier. Then, 5 × 10^6 cells of cells, pretreated with CM-444, […], or vehicle (80% saline solution, 10% DMSO and 10% Tween 20) and diluted in 100 µL of saline solution, were implanted subcutaneously into the flank of female BALB/cA Rag2^−/−γc^−/− mice between 6 and 8 weeks of age (n = 8). Tumor size was analyzed every 2–3 days using the following method: […], where D and d corresponded to the longest and shortest diameter, respectively. The maximal tumor size/burden permitted by the Animal Care and Ethics Committee of the University of Navarra is 2000 mm^3. In some cases, this limit was reached on the last day of measurement and the mice were immediately euthanized.
# [6] = tested on: ML-2 cells in BALB/cA Rag2-/-γc-/- mice; assay: as above; format: in vivo, mouse; set-up: key to Tumor volume: mm^3; V = D×d²/2 (D longest, d shortest diameter); settings: for Tumor volume: ML-2 cells pretreated in vitro for 96 hours, injected subcutaneously, individual mice (Fig 3A)
# Procedure: as §2
smiles,measurement,setting,value
"COc1cc2nc(-c3cc(C)oc3C)cc(NCC3CCN(c4ncc(C(=O)NO)cn4)CC3)c2cc1OC [CM-1758, 2-[4-[[[2-(2,5-dimethyl-3-furyl)-6,7-dimethoxy-4-quinolyl]amino]methyl] -1-piperidyl]pyrimidine-5-carbohydroxamic acid]",LINE-1 methylation (%) CG Position 1 Replicate 1,"[1]; HL-60, 48 h",100%
same,LINE-1 methylation (%) CG Position 1 Replicate 2,"[1]; HL-60, 48 h",100%
same,LINE-1 methylation (%) CG Position 2 Replicate 1,"[1]; HL-60, 48 h",86%
same,LINE-1 methylation (%) CG Position 2 Replicate 2,"[1]; HL-60, 48 h",82%
same,LINE-1 methylation (%) CG Position 3 Replicate 1,"[1]; HL-60, 48 h",100%
same,LINE-1 methylation (%) CG Position 3 Replicate 2,"[1]; HL-60, 48 h",100%
same,LINE-1 methylation (%) CG Position 4 Replicate 1,"[1]; HL-60, 48 h",100%
same,LINE-1 methylation (%) CG Position 4 Replicate 2,"[1]; HL-60, 48 h",100%
same,LINE-1 methylation (%) CG Position 5 Replicate 1,"[1]; HL-60, 48 h",79%
same,LINE-1 methylation (%) CG Position 5 Replicate 2,"[1]; HL-60, 48 h",83%
same,LINE-1 methylation (%) CG Position 1,"[1]; HL-60, 10 days",76% and 78%
same,LINE-1 methylation (%) CG Position 2,"[1]; HL-60, 10 days",61% and 65%
same,LINE-1 methylation (%) CG Position 3,"[1]; HL-60, 10 days",77% and 85%
same,LINE-1 methylation (%) CG Position 4,"[1]; HL-60, 10 days",87% and 93%
same,LINE-1 methylation (%) CG Position 5,"[1]; HL-60, 10 days",57% and 55%
same,LINE-1 methylation (%) CG Position 1,"[2]; MOLM-13, 48 hours",99% and 97%
same,LINE-1 methylation (%) CG Position 2,"[2]; MOLM-13, 48 hours",85% and 81%
same,LINE-1 methylation (%) CG Position 3,"[2]; MOLM-13, 48 hours",100% and 96%
same,LINE-1 methylation (%) CG Position 4,"[2]; MOLM-13, 48 hours",100%
same,LINE-1 methylation (%) CG Position 5,"[2]; MOLM-13, 48 hours",70% and 82%
same,LINE-1 methylation (%) CG Position 1,"[2]; MOLM-13, 5 days",69% and 59%
same,LINE-1 methylation (%) CG Position 2,"[2]; MOLM-13, 5 days",63% and 69%
same,LINE-1 methylation (%) CG Position 3,"[2]; MOLM-13, 5 days",78% and 80%
same,LINE-1 methylation (%) CG Position 4,"[2]; MOLM-13, 5 days",83% and 87%
same,LINE-1 methylation (%) CG Position 5,"[2]; MOLM-13, 5 days",58% and 54%
same,LINE-1 methylation (%) CG Position 1,"[3]; MV4-11, 48 hours",85%
same,LINE-1 methylation (%) CG Position 2,"[3]; MV4-11, 48 hours",80% and 74%
same,LINE-1 methylation (%) CG Position 3,"[3]; MV4-11, 48 hours",87%
same,LINE-1 methylation (%) CG Position 4,"[3]; MV4-11, 48 hours",95% and 97%
same,LINE-1 methylation (%) CG Position 5,"[3]; MV4-11, 48 hours",69% and 65%
same,LINE-1 methylation (%) CG Position 1,"[3]; MV4-11, 5 days",79% and 75%
same,LINE-1 methylation (%) CG Position 2,"[3]; MV4-11, 5 days",77% and 79%
same,LINE-1 methylation (%) CG Position 3,"[3]; MV4-11, 5 days",82% and 84%
same,LINE-1 methylation (%) CG Position 4,"[3]; MV4-11, 5 days",92% and 86%
same,LINE-1 methylation (%) CG Position 5,"[3]; MV4-11, 5 days",66% and 60%
same,half-life at 1 µM,"[4]; C57, mouse liver microsomes",12.5 min
same,half-life at 1 µM,[4]; human liver microsomes,37.9 min
same,tumor growth,"[5]; HL-60 cells pretreated in vitro 4 days, s.c.",tumor growth was significantly slower
same,Tumor volume,"[5]; day 0, in mm³",0
same,Tumor volume,[5]; day 6,14.6888 and 24.2273 and 0 (4×) and 45.3546
same,Tumor volume,[5]; day 8,103.082 and 62.3824 and 0 (2×) and 92.0448 and 53.4746 and 85.0123
same,Tumor volume,"[5]; day 10, in mm³",433.416 and 271.101 and 281.205 and 32.0688 and 347.688 and 41.4834 and 382.357
same,Tumor volume,"[5]; day 13, in mm³",1283.62 and 996.2 and 1210.81 and 1389.27 and 1272.73 and 1452.46 and 1063.15
same,tumor growth,"[6]; ML-2 cells pretreated in vitro 4 days, s.c.",tumor growth was significantly slower
same,Tumor volume,"[6]; day 0, in mm³",0
same,Tumor volume,"[6]; day 5, in mm³",0
same,Tumor volume,"[6]; day 7, in mm³",0
same,Tumor volume,[6]; day 9,1.83 and 2.997 and 3.143 and 0 (4×) and 2.907
same,Tumor volume,"[6]; day 12, in mm³",16.9153 and 75.9412 and 211.561 and 0 and 9.058 and 82.0914 and 8.878 and 27.0425
same,Tumor volume,"[6]; day 14, in mm³",153.626 and 316.908 and 512.533 and 39.4763 and 33.8029 and 280.96 and 104.197 and 181.612
same,Tumor volume,"[6]; day 16, in mm³",325.692 and 736.294 and 1010.72 and 175.673 and 76.8746 and 574.138 and 425.416 and 598.506
